pIC50: −log10 of the molar value. Counter-ions that a name gives are not always drawn. Where only a bound is given, the exact number is not on record here.

This test has as its target T1, human CGT (ceramide galactosyltransferase), CHO/CGT lysate (Homo sapiens, UniProt Q16880).
T1 construct: Full-length human CGT cDNA was cloned into the BamH1/Xho1 site of pcDNA3.1 (+); expressed in transfected cells; host or cells: Chinese hamster ovary (CHO) cells; lysate prepared with M-PER
T1 sequence (Q16880 21-541): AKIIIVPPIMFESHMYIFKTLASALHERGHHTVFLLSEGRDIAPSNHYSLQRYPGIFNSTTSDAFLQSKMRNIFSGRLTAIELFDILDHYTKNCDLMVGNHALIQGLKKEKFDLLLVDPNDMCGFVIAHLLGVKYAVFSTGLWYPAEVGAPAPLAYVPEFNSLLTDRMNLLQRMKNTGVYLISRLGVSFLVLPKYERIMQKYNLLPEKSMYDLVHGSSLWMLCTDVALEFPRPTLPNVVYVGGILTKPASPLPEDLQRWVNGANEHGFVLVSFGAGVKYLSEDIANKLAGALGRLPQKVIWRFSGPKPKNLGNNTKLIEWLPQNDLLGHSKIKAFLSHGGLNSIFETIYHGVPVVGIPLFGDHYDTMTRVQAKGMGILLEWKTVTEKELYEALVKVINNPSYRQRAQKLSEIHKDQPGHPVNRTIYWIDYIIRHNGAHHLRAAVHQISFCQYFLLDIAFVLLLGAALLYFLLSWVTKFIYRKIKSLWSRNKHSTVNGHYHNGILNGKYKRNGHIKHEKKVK
The test can be described thus: CGT enzyme assay, RapidFire/MS/MS readout (Table 1 ranges with one asterisk *). Format: biochemical. As to conditions: RapidFire method (range with one asterisk *). An outline of the steps: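 Lysate (4 μg) of CHO cells transfected with full-length human CGT incubated 1 h at 37 °C with compound (0.001–50 μM) in pH 7.2 HEPES buffer with 10 μM C6-NBD-dihydro-ceramide, 17.5 μM UDP-galactose, Mg2+/Mn2+, CHAPS, BSA, 0.5% DMSO; ** set also contained 0.01% Tween 80. Product quantified by RapidFire/MS/MS, normalized to internal standard; IC50 from sigmoidal variable-slope fits.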

For the compound `NC1CC2CCC(C1)N2C(=O)[C@H](NS(=O)(=O)c1ccc2cc(OC3CCCC3)ccc2c1)C(F)(F)c1cccc(Br)c1` (stereo partly drawn) [Compound 65-2, N-((2S)-3-(3-amino-8-azabicyclo[3.2.1]octan-8-yl)-1-(3-bromophenyl)-1,1-difluoro-3-oxopropan-2-yl)-6-(cyclopentyloxy)naphthalene-2-sulfonamide], the pIC50 (commonly the IC50 on a negative log10 scale, so that one unit is a factor of ten) is 4.52 to 5.00.
Then `NC1CC2CCC(C1)N2C(=O)[C@@H](NS(=O)(=O)c1ccc2cc(OC3CCCC3)ccc2c1)C(F)(F)c1cccc(-c2ccccc2)c1` (stereo partly drawn) [Compound 66-1, N-((2R)-1-([1,1′-biphenyl]-3-yl)-3-(3-amino-8-azabicyclo[3.2.1]octan-8-yl)-1,1-difluoro-3-oxopropan-2-yl)-6-(cyclopentyloxy)naphthalene-2-sulfonamide], with greater than 6.00; and `NC1CC2CCC(C1)N2C(=O)[C@H](NS(=O)(=O)c1ccc2cc(OC3CCCC3)ccc2c1)C(F)(F)c1cccc(-c2ccccc2)c1` (stereo partly drawn) [Compound 66-2, N-((2S)-1-([1,1′-biphenyl]-3-yl)-3-(3-amino-8-azabicyclo[3.2.1]octan-8-yl)-1,1-difluoro-3-oxopropan-2-yl)-6-(cyclopentyloxy)naphthalene-2-sulfonamide], with 5.00 to 6.00.
As for `CN([C@H](C(=O)N1C2CCC1CC(N)C2)C(F)(F)c1cccc(Br)c1)S(=O)(=O)c1ccc2cc(OC3CCCC3)ccc2c1` (stereo partly drawn) [Compound 67-1, N-((2R)-3-(3-amino-8-azabicyclo[3.2.1]octan-8-yl)-1-(3-bromophenyl)-1,1-difluoro-3-oxopropan-2-yl)-6-(cyclopentyloxy)-N-methylnaphthalene-2-sulfonamide], the pIC50 is 5.00 to 6.00.
`CN([C@@H](C(=O)N1C2CCC1CC(N)C2)C(F)(F)c1cccc(Br)c1)S(=O)(=O)c1ccc2cc(OC3CCCC3)ccc2c1` (stereo partly drawn) [Compound 67-2, N-((2S)-3-(3-amino-8-azabicyclo[3.2.1]octan-8-yl)-1-(3-bromophenyl)-1,1-difluoro-3-oxopropan-2-yl)-6-(cyclopentyloxy)-N-methylnaphthalene-2-sulfonamide]: the pIC50 was 4.00 to 4.52.
Then `CCN([C@H](C(=O)N1C2CCC1CC(N)C2)C(F)(F)c1ccc(Br)cc1)S(=O)(=O)c1ccc2cc(OC3CCCC3)ccc2c1` (stereo partly drawn) [Compound 68-1, N-((2R)-3-(3-amino-8-azabicyclo[3.2.1]octan-8-yl)-1-(4-bromophenyl)-1,1-difluoro-3-oxopropan-2-yl)-6-(cyclopentyloxy)-N-ethylnaphthalene-2-sulfonamide], with 5.00 to 6.00.
In turn, `CCN([C@@H](C(=O)N1C2CCC1CC(N)C2)C(F)(F)c1ccc(Br)cc1)S(=O)(=O)c1ccc2cc(OC3CCCC3)ccc2c1` (stereo partly drawn) [Compound 68-2, N-((2S)-3-(3-amino-8-azabicyclo[3.2.1]octan-8-yl)-1-(4-bromophenyl)-1,1-difluoro-3-oxopropan-2-yl)-6-(cyclopentyloxy)-N-ethylnaphthalene-2-sulfonamide] showed a pIC50 of 4.00 to 4.52.
The same measure for `NC1CCN(C(=O)[C@@H](NS(=O)(=O)c2ccc3cc(OC4CCCC4)ccc3c2)C(F)(F)c2cccc(-c3ccccc3)c2)CC1` [Compound 69-1, (R)—N-(1-([1,1′-biphenyl]-3-yl)-3-(4-aminopiperidin-1-yl)-1,1-difluoro-3-oxopropan-2-yl)-6-(cyclopentyloxy)naphthalene-2-sulfonamide trifluoroacetate]: 5.00 to 6.00; for `NC1CCN(C(=O)[C@H](NS(=O)(=O)c2ccc3cc(OC4CCCC4)ccc3c2)C(F)(F)c2cccc(-c3ccccc3)c2)CC1` [Compound 69-2, (S)—N-(1-([1,1′-biphenyl]-3-yl)-3-(4-aminopiperidin-1-yl)-1,1-difluoro-3-oxopropan-2-yl)-6-(cyclopentyloxy)naphthalene-2-sulfonamide trifluoroacetate]: 4.00 to 4.52; for `NC1CC2CCC(C1)N2C(=O)[C@@H](NS(=O)(=O)c1ccc(OCC2CCCCC2)cc1)C(F)(F)c1cccc(-c2ccccc2)c1` (stereo partly drawn) [Compound 70-1, N-((2R)-1-([1,1′-biphenyl]-3-yl)-3-(3-amino-8-azabicyclo[3.2.1]octan-8-yl)-1,1-difluoro-3-oxopropan-2-yl)-4-(cyclohexylmethoxy)benzenesulfonamide trifluoroacetate]: 5.00 to 6.00.
`NC1CC2CCC(C1)N2C(=O)[C@H](NS(=O)(=O)c1ccc(OCC2CCCCC2)cc1)C(F)(F)c1cccc(-c2ccccc2)c1` (stereo partly drawn) [Compound 70-2, N-((2S)-1-([1,1′-biphenyl]-3-yl)-3-(3-amino-8-azabicyclo[3.2.1]octan-8-yl)-1,1-difluoro-3-oxopropan-2-yl)-4-(cyclohexylmethoxy) benzenesulfonamide trifluoroacetate] had a pIC50 of 5.00 to 6.00.
The same measure for `NC1CCN(C(=O)[C@@H](NS(=O)(=O)c2ccc3cc(OC4CCCC4)ccc3c2)C(F)(F)c2ccc(C(F)(F)F)cc2)CC1` [Compound 71-1, (R)—N-(3-(4-aminopiperidin-1-yl)-1,1-difluoro-3-oxo-1-(4-(trifluoromethyl)phenyl)propan-2-yl)-6-(cyclopentyloxy)naphthalene-2-sulfonamide]: greater than 6.00; for `NC1CCN(C(=O)[C@H](NS(=O)(=O)c2ccc3cc(OC4CCCC4)ccc3c2)C(F)(F)c2ccc(C(F)(F)F)cc2)CC1` [Compound 71-2, (S)—N-(3-(4-aminopiperidin-1-yl)-1,1-difluoro-3-oxo-1-(4-(trifluoromethyl)phenyl)propan-2-yl)-6-(cyclopentyloxy)naphthalene-2-sulfonamide]: 5.00 to 6.00.
Then `NC1CCN(C(=O)[C@@H](NS(=O)(=O)c2ccc(OCC3CCCCC3)cc2)C(F)(F)c2ccc(C(F)(F)F)cc2)CC1` [Compound 72-1, (R)—N-(3-(4-aminopiperidin-1-yl)-1,1-difluoro-3-oxo-1-(4-(trifluoromethyl)phenyl)propan-2-yl)-4-(cyclohexylmethoxy)benzenesulfonamide], with 5.00 to 6.00; and `NC1CCN(C(=O)[C@H](NS(=O)(=O)c2ccc(OCC3CCCCC3)cc2)C(F)(F)c2ccc(C(F)(F)F)cc2)CC1` [Compound 72-2, (S)—N-(3-(4-aminopiperidin-1-yl)-1,1-difluoro-3-oxo-1-(4-(trifluoromethyl)phenyl)propan-2-yl)-4-(cyclohexylmethoxy)benzenesulfonamide], with 4.00 to 4.52; and `CN([C@H](C(=O)N1C2CCC1CC(N)C2)C(F)(F)c1ccc(C(F)(F)F)cc1)S(=O)(=O)c1ccc2cc(OC3CCCC3)ccc2c1` (stereo partly drawn) [Compound 73-1, N-((2R)-3-(3-amino-8-azabicyclo[3.2.1]octan-8-yl)-1,1-difluoro-3-oxo-1-(4-(trifluoromethyl)phenyl)propan-2-yl)-6-(cycyclopentyloxy)-N-methylnaphthalene-2-sulfonamide], with greater than 6.00.
The same measure for `CN([C@@H](C(=O)N1C2CCC1CC(N)C2)C(F)(F)c1ccc(C(F)(F)F)cc1)S(=O)(=O)c1ccc2cc(OC3CCCC3)ccc2c1` (stereo partly drawn) [Compound 73-2, N-((2S)-3-(3-amino-8-azabicyclo[3.2.1]octan-8-yl)-1,1-difluoro-3-oxo-1-(4-(trifluoromethyl)phenyl)propan-2-yl)-6-(cyclopentyloxy)-N-methylnaphthalene-2-sulfonamide]: 5.00 to 6.00.
Regarding `NC1CC2CCC(C1)N2C(=O)[C@@H](NS(=O)(=O)c1ccc2c(cnn2CC2CCCC2)c1)C(F)(F)c1ccc(Br)cc1` (stereo partly drawn) [Compound 74-1, N-((2R)-3-(3-amino-8-azabicyclo[3.2.1]octan-8-yl)-1-(4-bromophenyl)-1,1-difluoro-3-oxopropan-2-yl)-1-(cyclopentylmethyl)-1H-indazole-5-sulfonamide], the pIC50 was 5.00 to 6.00.
The same measure for `NC1CC2CCC(C1)N2C(=O)[C@H](NS(=O)(=O)c1ccc2c(cnn2CC2CCCC2)c1)C(F)(F)c1ccc(Br)cc1` (stereo partly drawn) [Compound 74-2, N-((2S)-3-(3-amino-8-azabicyclo[3.2.1]octan-8-yl)-1-(4-bromophenyl)-1,1-difluoro-3-oxopropan-2-yl)-1-(cyclopentylmethyl)-1H-indazole-5-sulfonamide]: 4.00 to 4.52.
As to `CN([C@H](C(=O)N1C2CCC1CC(N)C2)C(F)(F)c1ccc(Br)cc1)S(=O)(=O)c1ccc2c(cnn2CC2CCCC2)c1` (stereo partly drawn) [Compound 75-1, N-((2R)-3-(3-amino-8-azabicyclo[3.2.1]octan-8-yl)-1-(4-bromophenyl)-1,1-difluoro-3-oxopropan-2-yl)-1-(cyclopentylmethyl)-N-methyl-1H-indazole-5-sulfonamide], the pIC50 is 5.00 to 6.00.
In the case of `CN([C@@H](C(=O)N1C2CCC1CC(N)C2)C(F)(F)c1ccc(Br)cc1)S(=O)(=O)c1ccc2c(cnn2CC2CCCC2)c1` (stereo partly drawn) [Compound 75-2, N-((2S)-3-(3-amino-8-azabicyclo[3.2.1]octan-8-yl)-1-(4-bromophenyl)-1,1-difluoro-3-oxopropan-2-yl)-1-(cyclopentylmethyl)-N-methyl-1H-indazole-5-sulfonamide], the pIC50 was 4.00 to 4.52.

The values above are taken from US20190322676A1, “CERAMIDE GALACTOSYLTRANSFERASE INHIBITORS FOR THE TREATMENT OF DISEASE” (BioMarin Pharmaceutical Inc., priority 2016, published 2019).
